In patent publication US20070160725A1, “Use of extracts and compounds of allium-genus plants as preservatives in the food and agri-food industries” (MOUSALA, S., L., priority 2004, published 2007):
Values joined by “and” are separate entries in the source; they are usually repeats but may differ in a detail not shown here. Identical values can stand only once.

Tests used:
[1] = tested on: Aspergillus niger, CECT 2700; experiment: agar diffusion, inhibition halo; assay type: cell-based
Description: (§1) In order to evaluate the antimicrobial activity the agar diffusion technique with cellulose discs of 6 mm in diameter impregnated with the different active ingredient testing doses was used.
(§2) Antifungal capacity was assessed against suspensions of […], harvested from pure cultures of the selected molds and against suspensions of 10^7 cells/ml for the case of yeasts. The culture medium used was the 2% Sabouraud-glucose medium (Merck).
(§3) After incubating the culture dishes inoculated with the different organisms at the corresponding temperatures, the microbial inhibition halos that appeared were measured, and said measurement includes the 6 mm diameter of the cellulose discs.

[2] = tested on: Aspergillus terreus, isolated from the environment of the cheese maturation chamber; experiment: agar diffusion, inhibition halo; assay type: cell-based
Description: as §1, §2, §3

[3] = tested on: Candida albicans, ATCC 10231; experiment: agar diffusion, inhibition halo; assay type: cell-based
Description: as §1, §2, §3

[4] = tested on: Geotrichum candidum CECT 1902; experiment: agar diffusion, inhibition halo; assay type: cell-based; settings: in polyvinyl acetate emulsion, 2000 ppm
Description: as §1, §2, §3

[5] = tested on: Mucor plumbeus, isolated from cheese; experiment: agar diffusion, inhibition halo; assay type: cell-based
Description: as §1, §2, §3

[6] = tested on: Penicillium funiculosum, CECT 2702; experiment: agar diffusion, inhibition halo; assay type: cell-based
Description: as §1, §2, §3

[7] = tested on: Penicillium sp, isolated from cheese; experiment: agar diffusion, inhibition halo; assay type: cell-based
Description: as §1, §2, §3

[8] = tested on: Pullularia pullulans, CECT 2657; experiment: agar diffusion, inhibition halo; assay type: cell-based
Description: as §1, §2, §3

[9] = tested on: Saccharomyces cerevisiae, CECT 1324; experiment: agar diffusion, inhibition halo; assay type: cell-based
Description: as §1, §2, §3

[10] = tested on: Trichoderma viride, CECT 2460; experiment: agar diffusion, inhibition halo; assay type: cell-based
Description: as §1, §2, §3

[11] = tested on: Bacillus cereus, CECT 1178; experiment: agar diffusion, inhibition halo; assay type: cell-based
Description: as §1
(§4) Antibacterial capacity was assessed against suspensions of 10^6 cells/ml, prepared from pure young cultures of each one of the strains to be tested. The culture medium used was Müller-Hinton medium (Merck).
as §3

[12] = tested on: Bacillus megaterium, ATCC 33085; experiment: agar diffusion, inhibition halo; assay type: cell-based
Description: as §1, §4, §3

[13] = tested on: Escherichia coli, CECT 515; experiment: agar diffusion, inhibition halo; assay type: cell-based
Description: as §1, §4, §3

[14] = tested on: Micrococcus luteus, isolated from a spiced sausage; experiment: agar diffusion, inhibition halo; assay type: cell-based
Description: as §1, §4, §3

[15] = tested on: Proteus vulgaris, ATCC 13315; experiment: agar diffusion, inhibition halo; assay type: cell-based
Description: as §1, §4, §3

[16] = tested on: Pseudomonas aeruginosa, ATCC 13925; experiment: agar diffusion, inhibition halo; assay type: cell-based
Description: as §1, §4, §3

[17] = tested on: Salmonella typhimurium, ATCC 13311; experiment: agar diffusion, inhibition halo; assay type: cell-based
Description: as §1, §4, §3

[18] = tested on: Staphylococcus aureus, isolated from hamburgers; experiment: agar diffusion, inhibition halo; assay type: cell-based
Description: as §1, §4, §3

[19] = tested on: Streptococcus faecalis, isolated from a spiced sausage; experiment: agar diffusion, inhibition halo; assay type: cell-based
Description: as §1, §4, §3

[20] = tested on: mold on the surface of the cheese; experiment: preservative activity on surface of cheese (PVA emulsion coating); settings: fresh cheese, PVA emulsion with 2000 ppm pimaricin with 12000 ppm of potassium sorbate, diluted 1:1 with water, room temperature
Description: (§5) These tests were carried out according to the instructions for applying said commercial preparations on foods by immersion, such as spiced sausage, chorizo, cheese, etc. (see application examples), with different antimicrobial product doses.
The amounts of PTS and pimaricin with potassium sorbate (12000 ppm) as shown in the corresponding table are added to emulsions of 1 kg of PVA. Said preparations are diluted 1:1 with water and pieces of fresh cheese without surface treatment are submerged therein. Once the pieces are dry, each one is introduced into a sealed recipient and is left at room temperature. They are monitored, and the occurrence of mold on their surface is observed on the days herein set forth:
Amounts of complex in α-cyclodextrin (sample 2) and β-cyclodextrin (sample 3) are added to emulsions of 1 kg of PVA such that the amount of active ingredient, PTS, is 5000 ppm. On the other hand a sample (no. 1) is prepared with pimaricin (2000 ppm) and potassium sorbate (12000 ppm). The same process is followed as in the previous case upon applying the products and the samples are monitored, the occurrence of mold on the surface of the cheese being observed according to the following table: […]

mold = experiment: preserving activity on the surface of sausages (large intestine chorizo and spiced sausage); settings: intestines submerged in a pimaricin solution at 500 ppm for 3 hours before stuffing
Description: as §5
Preparing sample 1: First a series of pig large intestines are submerged in a dispersion of pimaricin in water, 500 ppm, for three hours. Then two pieces are stuffed with 600 g each.
Then 4 other pieces are stuffed with 600 g each and are treated as follows: • Control sample: two pieces are left untreated. • Sample 2: Two pieces are submerged for 2 minutes in a dispersion of sucrose esters in water (10-40 g/kg of water), with a concentration of 3000 ppm of PTS.
All the pieces are subjected to drying between 24 and 26° C. and 90% relative humidity for 72 hours. Then they are hung and left to cure. The external appearance is monitored and the following results are obtained: […]

[21] = tested on: Penicillium italicum CECT 2294; experiment: agar diffusion, inhibition halo; assay type: cell-based; settings: Penicillium italicum, CECT2294; 1000 ppm; read-out: inhibition halo diameter
Description: as §1, §2, §3

[22] = tested on: Bacillus subtilis, isolated from paprika; experiment: agar diffusion, inhibition halo; assay type: cell-based; settings: 1000 ppm
Description: as §1, §4, §3

[23] = 250 ppm (second column headed 250)
[24] = in polyvinyl acetate emulsion, 2000 ppm

C[C@@H]1C/C=C/C=C/C=C/C=C/[C@H](O[C@@H]2O[C@H](C)[C@@H](O)[C@H](N)[C@@H]2O)C[C@@H]2O[C@](O)(C[C@@H](O)C[C@H]3O[C@@H]3/C=C/C(=O)O1)C[C@H](O)[C@H]2C(=O)O [Pimaricin, pimaricin]
inhibition halo diameter ([1]; 62.5 ppm): 19 mm
inhibition halo diameter ([1]; 250 ppm): 19 mm
inhibition halo diameter [1, 23]: 19 mm
inhibition halo diameter ([1]; 500 ppm): 20 mm
inhibition halo diameter ([1]; 1000 ppm): 20 mm
inhibition halo diameter [1, 24]: 20 mm
inhibition halo diameter ([2]; 100 ppm): 14 mm
inhibition halo diameter ([2]; 1000 ppm): 15 mm
inhibition halo diameter ([3]; 62.5 ppm): 10 mm
inhibition halo diameter ([3]; 250 ppm): 12 mm
inhibition halo diameter [3, 23]: 12 mm
inhibition halo diameter ([3]; 500 ppm): 14 mm
inhibition halo diameter ([3]; 1000 ppm): 16 mm
inhibition halo diameter [4]: 15 mm
inhibition halo diameter [5, 24]: 13 mm
inhibition halo diameter ([6]; 62.5 ppm): 10 mm
inhibition halo diameter ([6]; 250 ppm): 11 mm
inhibition halo diameter [6, 23]: 10 mm
inhibition halo diameter ([6]; 500 ppm): 12 mm
inhibition halo diameter ([6]; 1000 ppm): 12 mm
inhibition halo diameter ([7]; 100 ppm): 24 mm
inhibition halo diameter ([7]; 1000 ppm): 26 mm
inhibition halo diameter [7, 24]: 18 mm
inhibition halo diameter ([8]; 62.5 ppm): 24 mm
inhibition halo diameter ([8]; 250 ppm): 28 mm
inhibition halo diameter [8, 23]: 28 mm
inhibition halo diameter ([8]; 500 ppm): 30 mm
inhibition halo diameter ([8]; 1000 ppm): 23 mm
inhibition halo diameter ([9]; 100 ppm): 26 mm
inhibition halo diameter ([9]; 1000 ppm): 26 mm
inhibition halo diameter ([10]; 62.5 ppm): 13 mm
inhibition halo diameter ([10]; 250 ppm): 15 mm
inhibition halo diameter [10, 23]: 14 mm
inhibition halo diameter ([10]; 500 ppm): 16 mm
inhibition halo diameter ([10]; 1000 ppm): 18 mm
inhibition halo diameter ([11]; 100 ppm): 0 mm
inhibition halo diameter ([11]; 1000 ppm): 0 mm
inhibition halo diameter ([12]; 62.5 ppm): 0 mm
inhibition halo diameter ([12]; 250 ppm): 0 mm
inhibition halo diameter [12, 23]: 0 mm
inhibition halo diameter ([12]; 500 ppm): 0 mm
inhibition halo diameter ([12]; 1000 ppm): 0 mm
inhibition halo diameter ([13]; 62.5 ppm): 0 mm
inhibition halo diameter ([13]; 250 ppm): 0 mm
inhibition halo diameter [13, 23]: 0 mm
inhibition halo diameter ([13]; 500 ppm): 0 mm
inhibition halo diameter ([13]; 1000 ppm): 0 mm
inhibition halo diameter ([14]; 100 ppm): 0 mm
inhibition halo diameter ([14]; 1000 ppm): 0 mm
inhibition halo diameter ([15]; 62.5 ppm): 0 mm
inhibition halo diameter ([15]; 250 ppm): 0 mm
inhibition halo diameter [15, 23]: 0 mm
inhibition halo diameter ([15]; 500 ppm): 0 mm
inhibition halo diameter ([15]; 1000 ppm): 0 mm
inhibition halo diameter ([16]; 62.5 ppm): 0 mm
inhibition halo diameter ([16]; 250 ppm): 0 mm
inhibition halo diameter [16, 23]: 0 mm
inhibition halo diameter ([16]; 500 ppm): 0 mm
inhibition halo diameter ([16]; 1000 ppm): 0 mm
inhibition halo diameter ([17]; 62.5 ppm): 0 mm
inhibition halo diameter ([17]; 250 ppm): 0 mm
inhibition halo diameter [17, 23]: 0 mm
inhibition halo diameter ([17]; 500 ppm): 0 mm
inhibition halo diameter ([17]; 1000 ppm): 0 mm
inhibition halo diameter ([18]; 62.5 ppm): 0 mm
inhibition halo diameter ([18]; 250 ppm): 0 mm
inhibition halo diameter [18, 23]: 0 mm
inhibition halo diameter ([18]; 500 ppm): 0 mm
inhibition halo diameter ([18]; 1000 ppm): 0 mm
inhibition halo diameter ([19]; 62.5 ppm): 0 mm
inhibition halo diameter ([19]; 250 ppm): 0 mm
inhibition halo diameter [19, 23]: 0 mm
inhibition halo diameter ([19]; 500 ppm): 0 mm
inhibition halo diameter ([19]; 1000 ppm): 0 mm
Visible occurrence of mold at [20]: 10 to 15 days and 10 to 16 days
Visible occurrence of mold at (mold): 6 days

CCCSS(=O)(=O)CCC [PTSO, Propyl Propylthiosulfonate]
inhibition halo diameter ([5]; 1000 ppm): 13 mm
zone of inhibition at 1000 ppm [21]: 65 mm
inhibition halo diameter [22]: 65 mm
inhibition halo diameter ([17]; 1000 ppm): 31 mm
inhibition halo diameter ([18]; 1000 ppm): 55 mm
